# Assay results published in US20260294845A1, “Uses of Adrenalone to Manage Cardiotoxicity or Cardiovascular Disorders” (Emory University, priority 2023, published 2026).
# “Also recorded” adds a separate entry of the source.
# Assays:
# [1] = test system: patients; settings: cancer patients on therapy; cited from earlier work
# [2] = test system: hiPSC-CMs; experiment: Cell viability of hiPSC-CMs treated with doxorubicin with or without 4H10 (CellTiter-Blue); type: cell-based, human
# Source text: Doxorubicin is a widely used chemotherapy drug for various cancers, including breast cancer, leukemia, and lymphoma. However, one significant side effect associated with doxorubicin use is cardiotoxicity. It is contemplated that 4H10 may target common mechanisms of cardiotoxicity and have a broad impact of cardioprotection since it protects hiPSC-CMs from toxicity induced by both ethanol and carfilzomib.
# [3] = test system: hiPSC-CMs; experiment: Mitochondrial oxidative stress caused by bortezomib (PS-341); type: cell-based, human; settings: with bortezomib
# Source text: (§1) Cardiomyocytes derived from human pluripotent stem cells (hiPSC-CMs) were provide a new platform for the studies of cancer drug-induced side effects and therapies. Using these cells, lead molecules were identified indicating protective properties on cardiomyocytes from the toxic effect of chemotherapy agents and ethanol (EtOH). […] Oxidative stress is a common molecular mechanism for cardiotoxicity induced by chemotherapy including proteosome inhibitors.
# [4] = test system: hiPSC-CMs; experiment: Effects of chemotherapeutic agents on function of hiPSC-CMs; type: cell-based, human; settings: melphalan treatment
# [5] = test system: hiPSC-CMs; settings: Liu et al., 2021; cited from earlier work
# [6] = test system: hiPSC-CMs; experiment: Chronic ethanol exposure of hiPSC-CMs: cellular properties, functions and global proteomic profiling; type: cell-based, human
# Protocol: Cardiomyocytes derived from human pluripotent stem cells (hiPSC-CMs) were treated with clinically relevant doses of ethanol for various durations up to 5 weeks. The treated cells were characterized for their cellular properties and functions, and global proteomic profiling was conducted.
# [7] = test system: hiPSC-CMs; experiment: Cardiac troponin T expression and mitochondrial content in EtOH-treated hiPSC-CMs; type: cell-based, human
# Source text: (§2) EtOH-induced cardiotoxicity shares common disease phenotypes and possibly similar underlying mechanisms with drug-induced cardiotoxicity.
# [8] = test system: RPMI8226 cells; experiment: Cell viability of RPMI8226 cells after carfilzomib with or without 4H10; type: cell-based; settings: 4H10 co-treatment with carfilzomib, 24 h
# Protocol: (§3) (top) Proteasome activity of IMR-90 hiPSC-CMs was measured after the cells were treated with CFZ with or without 4H10 for 24 hours. (bottom, right, left) Proteasome activity and cell viability of RPMI8226 cells (cancer cells) were measured after the cells were treated with CFZ with or without 4H10 for 24 hours.
# (§4) Experiments were designed to determine the effects of carfilzomib and 4H10 on proteasome activity and cell viability of RPMI8226 cell line, which has been investigated for the efficacy tests of carfilzomib in […].
# [9] = test system: hiPSC-CMs; experiment: Cell viability assay and cell counting (high-content imaging) of EtOH-challenged hiPSC-CMs; type: cell-based, human
# Source text: as §2
# [10] = test system: SCVI-273 hiPSC-CMs; experiment: Cell viability of EtOH-treated hiPSC-CMs derived from SCVI-273 hiPSCs; type: cell-based, human; settings: another cell line SCVI-273
# Source text: as §2
# [11] = test system: proteasome; experiment: Proteasome activity in RPMI8226 cells after carfilzomib with or without 4H10; type: cell-based; settings: 4H10 with carfilzomib, 24 h
# Protocol: as §3, §4
# [12] = test system: hiPSC-CMs; experiment: Cell viability of hiPSC-CMs treated with carfilzomib with or without 4H10 (CellTiter-Blue); type: cell-based, human; settings: for mitigation of carfilzomib-induced cytotoxicity: co-treatment of hiPSC-CMs with carfilzomib
# Protocol: Cell viability was analyzed after IMR-90 hiPSC-CMs were treated with carfilzomib (CFZ) with or without 4H10 for 24 hours. (n=5 cultures).
# (§5) A human induced pluripotent cell line (hiPSC line IMR90™, WiCell Research Institute) was fed daily on Matrigel™-coated plates with a defined medium for hiPSC culture, mTeSR1 medium. For CM differentiation, hiPSCs were induced using a growth factor-driven differentiation protocol as reported in Jha et al. Efficient differentiation of cardiomyocytes from human pluripotent stem cells with growth factors. Methods Mol Biol, 2015, 1299, 115-131. On the day of induction (day 0), medium was replaced with RPMI 1640 medium supplemented with 2% B27 minus insulin (a cell culture supplement) containing 100 ng/ml activin A. After induction for 24 h, the medium was replaced with fresh RPMI supplemented with 2% B27 minus insulin containing 10 ng/ml BMP4. From day 4 of differentiation, the medium was replaced with RPMI supplemented with 2% B27. On day 5, the cells were dissociated and reseeded into AggreWell400™ plates to acquire cardiac spheres. After 24 h, the cardiac spheres formed were collected and transferred to low-adhesion dishes for suspension culture. The medium was changed every other day. Cardiac spheres typically started beating spontaneously by day 7 to 9.
# as §1
# Consistently, treatment of hiPSC-CMs induced cell death and cytotoxicity. To examine if 4H10 could protect cardiomyocytes from carfilzomib-induced cytotoxicity, hiPSC-CMs were treated with carfilzomib at 5 μM alone or together with 4H10 at various concentrations for 24 h and then examined cell viability using the CellTiter-Blue Cell Viability Assay. Cells treated with DMSO (vehicle) were used as a control.
# [13] = test system: hiPSC-CMs; experiment: Oxidative stress in EtOH-treated hiPSC-CMs; type: cell-based, human
# Source text: as §2
# [14] = test system: proteasome; experiment: Proteasome activity in hiPSC-CMs after carfilzomib with or without 4H10; type: cell-based, human; settings: 4H10 co-treatment with carfilzomib, 24 h, IMR-90 hiPSC-CMs
# Protocol: as §3
# The proteasome, responsible for the regulated degradation of proteins, is a key cellular component targeted by carfilzomib as part of its mechanism of action in cancer therapy. Therefore, in addition to validation of cardioprotective effects of 4H10 on cell viability and mitochondrial function, it is crucial to examine if 4H10 compromises the proteasome inhibition efficacy of carfilzomib.
# [15] = test system: hiPSC-CMs; experiment: Intracellular oxidative stress (ROS) of carfilzomib-treated hiPSC-CMs, DCFDA/H2DCFDA assay; type: cell-based, human; settings: 24 h
# Protocol: The quantification of oxidative stress was performed using DCFDA staining of SCVI hiPSC-CMs treated with Cfz with or without 4H10 for 24 hours.
# The induction of oxidative stress is a crucial mechanism through which proteasome inhibitors induce apoptosis. To investigate if 4H10 could alleviate carfilzomib-induced increase of oxidative stress in cardiomyocytes, hiPSC-CMs were exposed to carfilzomib at 5 μM alone or together with 4H10 at various concentrations for 24 h. The production of cellular reactive oxygen species (ROS) was then measured using DCFDA/H2DCFDA assay kit.
# [16] = test system: hiPSC-CMs; experiment: MitoTracker Red staining (mitochondrial content and activity) of carfilzomib-treated hiPSC-CMs, high-content imaging; type: cell-based, human; settings: 24 h
# Protocol: MitoTracker™ Red staining was performed in IMR-90 hiPSC-CMs treated with CFZ with or without 4H10 for 24 hours.
# as §5
# Mitochondria play a crucial role in energy production, cellular metabolism, and the regulation of cell death. Experiments indicate carfilzomib induces mitochondrial dysfunction in hiPSC-CMs. To assess the potential mitigating effects of 4H10 on carfilzomib-induced mitochondrial dysfunction, hiPSC-CMs were treated with carfilzomib alone or co-treated with 4H10 at various concentrations. Mitochondria were then visualized using MitoTracker™ Red dyes, which can accumulate in active mitochondria and allow for the measurement of mitochondrial content and activity in live cells.
# [17] = test system: α1-AR; experiment: Staining of hiPSC-CMs with BODIPY-FL-prazosin for α1-AR expression; type: cell-based, human; settings: fluorescent staining, α1-AR expression and localization
# Source text: The expression of α1-AR was detected in hiPSC-CMs based on the BODIPY FL prazosin signals.
# [18] = test system: α1-AR; settings: literature knowledge; cited from earlier work
# [19] = clinically relevant doses of ethanol, up to 5 weeks
compound,measurement,setting,value
COc1cccc2c1C(=O)c1c(O)c3c(c(O)c1C2=O)C[C@@](O)(C(=O)CO)C[C@@H]3O[C@H]1C[C@H](N)[C@H](O)[C@H](C)O1 [doxorubicin],cardiac adverse events in patients,[1],cardiotoxicity
same,cell viability after doxorubicin,"[2]; doxorubicin 1-10 μM alone, 24 h, compared with untreated cells",significant decrease in cell viability
"CNCC(=O)c1ccc(O)c(O)c1 [Adrenalone, 1-(3,4-dihydroxyphenyl)-2-(methylamino) ethan-1-one]",mitochondrial oxidative stress caused by bortezomib (PS-341),[3],reduced mitochondrial oxidative stress
melphalan,cardiotoxicity in hiPSC-CMs: cardiac function,[4],abnormal cardiac function
same,cardiotoxicity in hiPSC-CMs: oxidative stress,[4],"induces cardiotoxicity, including oxidative stress"
same,cardiac adverse events in patients,[1],clinically observed arrhythmias
CCO [ethanol],changes in hiPSC-CMs on chronic ethanol exposure,[5],induces deleterious changes in cardiomyocytes
same,Ca^2+ handling,[6]; [19],deranged Ca^2+ handling
same,action potential,[6]; [19],abnormal action potential
same,cell death,[6]; [19],Increased cell death
same,contractility,[6]; [19],altered contractility
same,oxidative stress,[6]; [19],"Increased cell death, oxidative stress"
same,structure development,[6]; [19],suppressed structure development
same,global proteomic profiling: dysregulated proteins,"[6]; ethanol, up to 5 weeks","Many dysregulated proteins identified by global proteomic profiling were involved in apoptosis, heart contraction, and extracellular collagen matrix"
same,signaling pathways affected,[6]; long-term ethanol exposure,several signaling pathways including the Wnt and TGFβ signaling pathways were affected
CNCC(=O)c1ccc(O)c(O)c1 [4H10],defects in expression of cardiac troponin T,[7],reduced
same,defects in mitochondrial content,[7],reduced
same,change of carfilzomib-reduced RPMI8226 viability by 4H10 co-treatment,[8],does not interfere with the proteasome inhibition activity of carfilzomib and the ability of carfilzomib to kill cancer cells; also recorded: not significantly changed
same,protection from alcohol-induced cytotoxicity,[9]; hiPSC-CMs,can protect hiPSC-CMs from alcohol- and carfilzomib-induced cytotoxicity
same,cell survival following EtOH challenge,"[9]; hiPSC-CMs challenged with EtOH, cell viability assay and cell counting",increased cell survival dose-dependently
same,cell number after EtOH treatment,[9]; high-content imaging,attenuated the reduced cell number induced by EtOH treatment
same,"cell viability, EtOH-treated SCVI-273 hiPSC-CMs",[10],increased cell viability
same,change of proteasome activity in RPMI8226 cells by 4H10,[11],did not elicit any changes
same,maximal cytoprotective effect against carfilzomib,"[12]; 4H10 at 25 μM and 50 μM + carfilzomib 5 μM, 24 h",maximal cytoprotective effect for the cells to reach viability levels similar to those from DMSO-treated cells
same,cell viability after co-treatment with carfilzomib and 4H10,"[12]; carfilzomib 5 μM + 4H10 at 5 μM or higher, 24 h, compared (so in the source) with DMSO-treated cells",significantly increased cell viability
same,mitigation of carfilzomib-induced cytotoxicity,[12],protection of hiPSC-CMs from carfilzomib-induced cardiotoxicity; also recorded: reduced cytotoxicity was observed; also recorded: mitigated carfilzomib-induced cytotoxicity in a dose-dependent manner
same,mitigation of carfilzomib-induced cytotoxicity,[12]; listed as adrenalone HCl,protected hiPSC-CMs from cardiotoxicity induced by carfilzomib
same,oxidative stress in EtOH-treated hiPSC-CMs,[13],reduced oxidative stress
same,effect on proteasome inhibition activity of carfilzomib,[14],does not interfere with the proteasome inhibition activity of carfilzomib; also recorded: did not interfere with the proteasome inhibition activity of carfilzomib
same,DCFDA fluorescence intensity on co-treatment,"[15]; 4H10 at 5 μM or higher + carfilzomib 5 μM, dose-dependent",reduction of DCFDA fluorescence intensity
same,mitigation of carfilzomib-induced oxidative stress,"[15]; co-treatment with carfilzomib, SCVI hiPSC-CMs",mitigates carfilzomib-induced intracellular oxidative stress; also recorded: mitigated carfilzomib-induced oxidative stress in hiPSC-CMs in a dose-dependent manner
same,MitoTracker Red fluorescence intensity on co-treatment,"[16]; 4H10 at 10 μM or higher + carfilzomib, dose-dependent",increase in fluorescence intensity
same,mitigation of carfilzomib-induced mitochondrial defects,[16]; co-treatment with carfilzomib,mitigates carfilzomib-induced mitochondrial defects; also recorded: mitigated carfilzomib-induced mitochondrial defects in hiPSC-CMs in a dose-dependent manner
same,cell viability after co-treatment with doxorubicin and 4H10,"[2]; 4H10 25 μM + doxorubicin 1, 2, 5 or 10 μM, 24 h, compared with doxorubicin",increased cell viability
same,mitigation of doxorubicin-induced cytotoxicity,[2]; 4H10 co-treatment with doxorubicin,protects hiPSC-CMs from doxorubicin-induced cytotoxicity; also recorded: mitigated doxorubicin-induced cytotoxicity
BODIPY-FL-prazosin,BODIPY FL prazosin signals in hiPSC-CMs,[17],co-localized with nuclei
same,α1-AR affinity / antagonism,[18],high-affinity antagonist
